PubChem BioAssay AID1745844 (Carcinogenic Potency Database (CPDB), 2022)

Tested on: rodent lifetime carcinogenesis bioassay, tumor incidence TD50
Assay: chronic cancer bioassays in animals – CPDB, compiled studies (AID 1745844)
Details: rat

`C=CCl` showed a TD50 (strain Charles River CD (Sprague-Dawley), females, inhaled, site: liver, lesion: hemangiosarcoma, dosed 26 weeks, study length 78 weeks) of 115 mg/kg/day, a TD50 (strain Charles River CD (Sprague-Dawley), females, inhaled, site: liver, lesion: hemangiosarcoma, dosed 43 weeks, study length 95 weeks) of 69.5 mg/kg/day and a TD50 (strain Charles River CD (Sprague-Dawley), females, inhaled, site: liver, lesion: hepatocellular carcinoma, dosed 43 weeks, study length 95 weeks) of 225 mg/kg/day. It also gave a TD50 (strain Charles River CD (Sprague-Dawley), females, inhaled, site: liver, lesion: neoplastic nodule, dosed 43 weeks, study length 95 weeks) of 315 mg/kg/day, a TD50 (strain Charles River CD (Sprague-Dawley), males, inhaled, site: liver, lesion: hemangiosarcoma, dosed 43 weeks, study length 95 weeks) of 103 mg/kg/day and a TD50 (strain Charles River CD (Sprague-Dawley), males, inhaled, site: liver, lesion: hepatocellular carcinoma, dosed 26 weeks, study length 78 weeks) of 52.9 mg/kg/day. The TD50 (strain Charles River CD (Sprague-Dawley), males, inhaled, site: liver, lesion: hepatocellular carcinoma, dosed 43 weeks, study length 95 weeks) was 265 mg/kg/day, the TD50 (strain Charles River CD (Sprague-Dawley), males, inhaled, site: liver, lesion: neoplastic nodule, dosed 26 weeks, study length 78 weeks) was 11.5 mg/kg/day and the TD50 (strain Charles River CD (Sprague-Dawley), males, inhaled, site: liver, lesion: neoplastic nodule, dosed 43 weeks, study length 95 weeks) was 34.6 mg/kg/day. The TD50 (strain Fischer 344, females, inhaled, site: all sites, lesion: hemangiosarcoma, dosed 26 weeks, study length 104 weeks) was 91.2 mg/kg/day, the TD50 (strain Fischer 344, females, inhaled, site: all sites, lesion: hemangiosarcoma, dosed 52 weeks, study length 104 weeks) was 29.5 mg/kg/day and the TD50 (strain Fischer 344, females, inhaled, site: all sites, lesion: hemangiosarcoma, dosed 78 weeks, study length 104 weeks) was 32.8 mg/kg/day. The TD50 (strain Fischer 344, females, inhaled, site: all sites, lesion: hemangiosarcoma, dosed 104 weeks, study length 104 weeks) was 23.6 mg/kg/day, the TD50 (strain Fischer 344, females, inhaled, site: liver, lesion: hepatocellular carcinoma, dosed 26 weeks, study length 104 weeks) was 103 mg/kg/day and the TD50 (strain Fischer 344, females, inhaled, site: liver, lesion: hepatocellular carcinoma, dosed 52 weeks, study length 104 weeks) was 101 mg/kg/day. The TD50 (strain Fischer 344, females, inhaled, site: liver, lesion: hepatocellular carcinoma, dosed 78 weeks, study length 104 weeks) was 65.2 mg/kg/day, the TD50 (strain Fischer 344, females, inhaled, site: liver, lesion: hepatocellular carcinoma, dosed 104 weeks, study length 104 weeks) was 77.2 mg/kg/day and the TD50 (strain Fischer 344, females, inhaled, site: liver, lesion: neoplastic nodule, dosed 26 weeks, study length 104 weeks) was 17.6 mg/kg/day. It also gave a TD50 (strain Fischer 344, females, inhaled, site: liver, lesion: neoplastic nodule, dosed 52 weeks, study length 104 weeks) of 16.2 mg/kg/day, a TD50 (strain Fischer 344, females, inhaled, site: liver, lesion: neoplastic nodule, dosed 78 weeks, study length 104 weeks) of 96.3 mg/kg/day and a TD50 (strain Fischer 344, females, inhaled, site: liver, lesion: neoplastic nodule, dosed 104 weeks, study length 104 weeks) of 166 mg/kg/day. It also gave a TD50 (strain Fischer 344, females, inhaled, site: mammary gland, lesion: adenocarcinoma, dosed 52 weeks, study length 104 weeks) of 38 mg/kg/day, a TD50 (strain Fischer 344, females, inhaled, site: mammary gland, lesion: adenocarcinoma, dosed 78 weeks, study length 104 weeks) of 74.2 mg/kg/day and a TD50 (strain Fischer 344, females, inhaled, site: mammary gland, lesion: adenocarcinoma, dosed 104 weeks, study length 104 weeks) of 264 mg/kg/day. For the same compound, the TD50 (strain Fischer 344, females, inhaled, site: mammary gland, lesion: fibroadenoma, dosed 26 weeks, study length 104 weeks) was 15.1 mg/kg/day, the TD50 (strain Fischer 344, females, inhaled, site: mammary gland, lesion: fibroadenoma, dosed 52 weeks, study length 104 weeks) was 14.6 mg/kg/day and the TD50 (strain Fischer 344, females, inhaled, site: mammary gland, lesion: fibroadenoma, dosed 78 weeks, study length 104 weeks) was 29.7 mg/kg/day. It also gave a TD50 (strain Fischer 344, females, inhaled, site: mammary gland, lesion: fibroadenoma, dosed 104 weeks, study length 104 weeks) of 32.9 mg/kg/day, a TD50 (strain Sprague-Dawley, females, by gavage, site: Zymbal's gland, lesion: carcinoma, dosed 59 weeks, study length 129 weeks) of 5.05 mg/kg/day and a TD50 (strain Sprague-Dawley, females, by gavage, site: any site (literature study), lesion: several types, types named in the paper, dosed 52 weeks, study length 127 weeks) of 35.2 mg/kg/day. The TD50 (strain Sprague-Dawley, females, by gavage, site: any site (literature study), lesion: several types, types named in the paper, dosed 59 weeks, study length 129 weeks) was 0.878 mg/kg/day, the TD50 (strain Sprague-Dawley, females, by gavage, site: extrahepatic tissue, lesion: angioma, dosed 52 weeks, study length 127 weeks) was 408 mg/kg/day and the TD50 (strain Sprague-Dawley, females, by gavage, site: extrahepatic tissue, lesion: angiosarcoma, dosed 52 weeks, study length 127 weeks) was 454 mg/kg/day. For the same compound, the TD50 (strain Sprague-Dawley, females, by gavage, site: extrahepatic tissue, lesion: angiosarcoma, dosed 59 weeks, study length 129 weeks) was 10.9 mg/kg/day, the TD50 (strain Sprague-Dawley, females, by gavage, site: kidney, lesion: nephroblastoma, dosed 52 weeks, study length 127 weeks) was 182 mg/kg/day and the TD50 (strain Sprague-Dawley, females, by gavage, site: liver, lesion: angioma, dosed 52 weeks, study length 127 weeks) was 207 mg/kg/day. For the same compound, the TD50 (strain Sprague-Dawley, females, by gavage, site: liver, lesion: angiosarcoma, dosed 52 weeks, study length 127 weeks) was 38.6 mg/kg/day, the TD50 (strain Sprague-Dawley, females, by gavage, site: liver, lesion: angiosarcoma, dosed 59 weeks, study length 129 weeks) was 3.58 mg/kg/day and the TD50 (strain Sprague-Dawley, females, inhaled, site: Zymbal's gland, lesion: carcinoma, dosed 25 weeks, study length 127 weeks) was 1200 mg/kg/day. It also gave a TD50 (strain Sprague-Dawley, females, inhaled, site: Zymbal's gland, lesion: carcinoma, dosed 25 weeks, study length 135 weeks) of 569 mg/kg/day, a TD50 (strain Sprague-Dawley, females, inhaled, site: Zymbal's gland, lesion: carcinoma, dosed 52 weeks, study length 111 weeks) of 67.9 mg/kg/day and a TD50 (strain Sprague-Dawley, females, inhaled, site: Zymbal's gland, lesion: carcinoma, dosed 52 weeks, study length 139 weeks) of 1070 mg/kg/day. For the same compound, the TD50 (strain Sprague-Dawley, females, inhaled, site: Zymbal's gland, lesion: carcinoma, dosed 71 weeks, study length 71 weeks) was 1190 mg/kg/day, the TD50 (strain Sprague-Dawley, females, inhaled, site: any site (literature study), lesion: several types, types named in the paper, dosed 25 weeks, study length 127 weeks) was 309 mg/kg/day and the TD50 (strain Sprague-Dawley, females, inhaled, site: any site (literature study), lesion: several types, types named in the paper, dosed 25 weeks, study length 135 weeks) was 51.5 mg/kg/day. The TD50 (strain Sprague-Dawley, females, inhaled, site: any site (literature study), lesion: several types, types named in the paper, dosed 52 weeks, study length 111 weeks) was 2.12 mg/kg/day, the TD50 (strain Sprague-Dawley, females, inhaled, site: any site (literature study), lesion: several types, types named in the paper, dosed 52 weeks, study length 139 weeks) was 37.4 mg/kg/day and the TD50 (strain Sprague-Dawley, females, inhaled, site: any site (literature study), lesion: several types, types named in the paper, dosed 71 weeks, study length 71 weeks) was 70.5 mg/kg/day. It also gave a TD50 (strain Sprague-Dawley, females, inhaled, site: brain, lesion: neuroblastoma, dosed 25 weeks, study length 135 weeks) of 3630 mg/kg/day, a TD50 (strain Sprague-Dawley, females, inhaled, site: brain, lesion: neuroblastoma, dosed 52 weeks, study length 131 weeks) of 4850 mg/kg/day and a TD50 (strain Sprague-Dawley, females, inhaled, site: brain, lesion: neuroblastoma, dosed 71 weeks, study length 71 weeks) of 184 mg/kg/day. The TD50 (strain Sprague-Dawley, females, inhaled, site: extrahepatic tissue, lesion: angioma, dosed 25 weeks, study length 135 weeks) was 2990 mg/kg/day.
